#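 Assay format: 96-well plates, 48-hour exposure. At the TGI there is no net growth.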
# Experiments:
# Experiment in all cases: NCI-60 cell line screen, 48 h
# [1] = tested on: 786-0 renal
# [2] = tested on: A498 renal
# [3] = tested on: A549 NSCLC
# [4] = tested on: ACHN renal
# [5] = tested on: BT-549 breast
# [6] = tested on: CAKI-1 renal
# [7] = tested on: CCRF-CEM leukemia
# [8] = tested on: COLO 205 colon
# [9] = tested on: DU-145 prostate
# [10] = tested on: EKVX NSCLC
# [11] = tested on: HCT-116 colon
# [12] = tested on: HCT-15 colon
# [13] = tested on: HL-60(TB) leukemia
# [14] = tested on: HOP-62 NSCLC
# [15] = tested on: HS 578T breast
# [16] = tested on: HT29 colon
# [17] = tested on: IGROV1 ovarian
# [18] = tested on: K-562 leukemia
# [19] = tested on: KM12 colon
# [20] = tested on: M14 melanoma
# [21] = tested on: MCF7 breast
# [22] = tested on: MDA-MB-231 breast
# [23] = tested on: MDA-MB-435
# [24] = tested on: MDA-N
# [25] = tested on: MOLT-4 leukemia
# [26] = tested on: NCI-H226 lung
# [27] = tested on: NCI-H23 lung
# [28] = tested on: NCI-H460 lung
# [29] = tested on: NCI/ADR-RES ovarian
# [30] = tested on: OVCAR-3 ovarian
# [31] = tested on: OVCAR-5 ovarian
# [32] = tested on: OVCAR-8 ovarian
# [33] = tested on: PC-3 prostate
# [34] = tested on: RPMI-8226 leukemia
# [35] = tested on: RXF 393 renal
# [36] = tested on: SF-268 CNS
# [37] = tested on: SF-295 CNS
# [38] = tested on: SF-539 CNS
# [39] = tested on: SK-MEL-2 melanoma
# [40] = tested on: SK-MEL-28 melanoma
# [41] = tested on: SK-MEL-5 melanoma
# [42] = tested on: SN12C renal
# [43] = tested on: SNB-19 CNS
# [44] = tested on: SNB-75 CNS
# [45] = tested on: SR leukemia
# [46] = tested on: SW-620 colon
# [47] = tested on: T-47D breast
# [48] = tested on: TK-10 renal
# [49] = tested on: U251 CNS
# [50] = tested on: UACC-257 melanoma
# [51] = tested on: UACC-62 melanoma
# [52] = tested on: UO-31 renal
# [53] = tested on: HCC-2998 colon
# [54] = tested on: LOX IMVI melanoma
# [55] = tested on: NCI-H522 lung
# [56] = tested on: OVCAR-4 ovarian
# [57] = tested on: SK-OV-3 ovarian
# [58] = tested on: MALME-3M melanoma
structure (smiles),measurement,setting,value
Cn1ncc2[nH]cnc2c1=S,TGI,[1],> 100 µM
same,TGI,[2],> 100 µM
same,TGI,[3],> 100 µM
same,TGI,[4],> 100 µM
same,TGI,[5],> 100 µM
same,TGI,[6],> 100 µM
same,TGI,[7],66.8 µM
same,TGI,[8],> 100 µM
same,TGI,[9],> 100 µM
same,TGI,[10],> 100 µM
same,TGI,[11],> 100 µM
same,TGI,[12],> 100 µM
same,TGI,[13],24.6 µM
same,TGI,[14],> 100 µM
same,TGI,[15],> 100 µM
same,TGI,[16],> 100 µM
same,TGI,[17],> 100 µM
same,TGI,[18],> 100 µM
same,TGI,[19],> 100 µM
same,TGI,[20],> 100 µM
same,TGI,[21],> 100 µM
same,TGI,[22],> 100 µM
same,TGI,[23],> 100 µM
same,TGI,[24],> 100 µM
same,TGI,[25],> 100 µM
same,TGI,[26],> 100 µM
same,TGI,[27],> 100 µM
same,TGI,[28],> 100 µM
same,TGI,[29],> 100 µM
same,TGI,[30],> 100 µM
same,TGI,[31],> 100 µM
same,TGI,[32],> 100 µM
same,TGI,[33],> 100 µM
same,TGI,[34],> 100 µM
same,TGI,[35],> 100 µM
same,TGI,[36],> 100 µM
same,TGI,[37],> 100 µM
same,TGI,[38],> 100 µM
same,TGI,[39],> 100 µM
same,TGI,[40],> 100 µM
same,TGI,[41],> 100 µM
same,TGI,[42],> 100 µM
same,TGI,[43],> 100 µM
same,TGI,[44],> 100 µM
same,TGI,[45],> 100 µM
same,TGI,[46],> 100 µM
same,TGI,[47],> 100 µM
same,TGI,[48],> 100 µM
same,TGI,[49],> 100 µM
same,TGI,[50],> 100 µM
same,TGI,[51],> 100 µM
same,TGI,[52],> 100 µM
CC(C)c1cc(Cl)nc(Cl)n1,TGI,[1],> 100 µM
same,TGI,[2],> 100 µM
same,TGI,[3],> 100 µM
same,TGI,[4],> 100 µM
same,TGI,[5],> 100 µM
same,TGI,[6],> 100 µM
same,TGI,[7],> 100 µM
same,TGI,[8],> 100 µM
same,TGI,[9],> 100 µM
same,TGI,[10],> 100 µM
same,TGI,[53],> 100 µM
same,TGI,[11],> 100 µM
same,TGI,[12],> 100 µM
same,TGI,[13],> 100 µM
same,TGI,[15],> 100 µM
same,TGI,[16],> 100 µM
same,TGI,[17],> 100 µM
same,TGI,[18],> 100 µM
same,TGI,[19],> 100 µM
same,TGI,[54],> 100 µM
same,TGI,[20],> 100 µM
same,TGI,[21],> 100 µM
same,TGI,[22],> 100 µM
same,TGI,[23],> 100 µM
same,TGI,[24],> 100 µM
same,TGI,[25],> 100 µM
same,TGI,[26],> 100 µM
same,TGI,[27],> 100 µM
same,TGI,[28],> 100 µM
same,TGI,[55],> 100 µM
same,TGI,[29],> 100 µM
same,TGI,[30],> 100 µM
same,TGI,[56],> 100 µM
same,TGI,[31],> 100 µM
same,TGI,[32],> 100 µM
same,TGI,[33],> 100 µM
same,TGI,[34],> 100 µM
same,TGI,[35],> 100 µM
same,TGI,[36],> 100 µM
same,TGI,[37],> 100 µM
same,TGI,[38],> 100 µM
same,TGI,[39],> 100 µM
same,TGI,[40],> 100 µM
same,TGI,[41],> 100 µM
same,TGI,[57],> 100 µM
same,TGI,[42],> 100 µM
same,TGI,[43],> 100 µM
same,TGI,[44],> 100 µM
same,TGI,[45],> 100 µM
same,TGI,[46],> 100 µM
same,TGI,[47],> 100 µM
same,TGI,[48],> 100 µM
same,TGI,[49],> 100 µM
same,TGI,[50],> 100 µM
same,TGI,[51],> 100 µM
same,TGI,[52],> 100 µM
CNC(=S)Nc1sc2c(c1C#N)CCCC2,TGI,[1],> 75 µM
same,TGI,[2],> 75 µM
same,TGI,[4],> 75 µM
same,TGI,[5],> 75 µM
same,TGI,[6],> 75 µM
same,TGI,[8],> 75 µM
same,TGI,[9],> 75 µM
same,TGI,[10],> 75 µM
same,TGI,[53],> 75 µM
same,TGI,[11],> 75 µM
same,TGI,[12],> 75 µM
same,TGI,[13],> 75 µM
same,TGI,[14],> 75 µM
same,TGI,[15],> 75 µM
same,TGI,[16],> 75 µM
same,TGI,[17],> 75 µM
same,TGI,[18],> 75 µM
same,TGI,[19],> 75 µM
same,TGI,[54],> 75 µM
same,TGI,[58],> 75 µM
same,TGI,[21],> 75 µM
same,TGI,[22],> 75 µM
same,TGI,[23],> 75 µM
same,TGI,[24],> 75 µM
same,TGI,[25],> 75 µM
same,TGI,[26],> 75 µM
same,TGI,[27],> 75 µM
same,TGI,[28],> 75 µM
same,TGI,[55],> 75 µM
same,TGI,[29],> 75 µM
same,TGI,[30],> 75 µM
same,TGI,[56],> 75 µM
same,TGI,[31],> 75 µM
same,TGI,[32],> 75 µM
same,TGI,[33],> 75 µM
same,TGI,[34],> 75 µM
same,TGI,[35],> 75 µM
same,TGI,[36],> 75 µM
same,TGI,[37],> 75 µM
same,TGI,[39],> 75 µM
same,TGI,[40],> 75 µM
same,TGI,[41],> 75 µM
same,TGI,[42],> 75 µM
same,TGI,[43],> 75 µM
same,TGI,[44],> 75 µM
same,TGI,[45],> 75 µM
same,TGI,[46],> 75 µM
same,TGI,[47],> 75 µM
same,TGI,[48],> 75 µM
same,TGI,[49],> 75 µM
same,TGI,[50],> 75 µM
same,TGI,[51],> 75 µM
same,TGI,[52],> 75 µM

# Source: PubChem BioAssay (NCI)
